Where “and” joins values, the source holds several entries; their conditions need not be identical. Equal values may be shown once. Entries after “also recorded” stand apart in the source; their conditions may differ. Read-outs that look alike come from different tables or passages of the source. Values belong to the molecule of their own block, whether it stands above or below them.
Assays:
mice = assay: in vivo; assay type: in vivo
Excerpt: (§1) The acute toxicity after a single administration of the products per os was studied in mice.
(§2) The compounds were placed in suspension in a mixture of Tween 80™ and distilled water. […] Exper.

in vivo = assay type: in vivo; settings: mouse, in vivo, po; mice, per os, single administration, 7 days
Excerpt: as §1, §2

[1] = tested on: Delayed Hypersensitivity Pleurisy to Bordetella pertussis; assay: Pleurisy of delayed hypersensitivity to Bordetella pertussis in rats after chronic treatment; assay type: in vivo; settings: for Action on the volume of exudate / Action on the number of mononuclears / Action on the number of polynuclears / Action on the total number of leukocytes: 5 mg/kg p.o.; for Delayed hypersensitivity pleural inflammation (in words) / Action compared with levamisole (in words): orally, chronic treatment, 5 mg/kg/administration; for Action compared with levamisole (in words): both treatment procedures
Procedure: II--Action on Pleurisy of Delayed Hypersensitivity to Bordetella pertussis in Rats After Chronic Treatment […]
Male rats weighing 280-320 g are used. The suspension of Bordetella pertussis used is the pertussis vaccine of the Pasteur Institute (5×10^9 killed bacilli per ml). The Bordetella pertussis suspension is mixed (V/V: 50/50) with Freund's complete adjuvant. 0.2 ml of this mixture is injected intramuscularly into each thigh of the rat.
6 days later, 0.1 ml of the Bordetella pertussis suspension is injected into the pleural cavity. 48 hours later, the pleural exudate formed is removed and measured. The total number of leukocytes and the number of mononuclears and polynuclears of the exudate are determined.
The products studied were administered chronically in accordance with two procedures:
Procedure 1: The treatment commences on the day of the sensitization and continues at the rate of one administration per day until the challenge injection. On the day of the latter the compounds are given twice: one administration before and one after the intrapleural injection of the antigen. The animals are treated a last time 24 hours later.
Procedure 2: The treatment commences three weeks before the sensitization. During these three weeks, the products are given at the rate of 5 times per week. The treatment is then continued as indicated above in Procedure 1.

[2] = tested on: cutaneous delayed hypersensitivity reaction to PPD; assay type: in vivo, albino guinea pigs
[3] = Chronic toxicity per os for two months in rats; settings: rat, in vivo, po, read-out: Dose not resulting in any toxic phenomenon
[4] = 200 mg/kg per os, 5 mice per lot
[5] = 1000 mg/kg per os, 5 mice per lot

Compound: Nc1nc(-c2ccccc2)cs1 [F 1653, 4-phenyl 2-amino thiazole]
Solubility in dimethyl pyrrolidone (Solubility; dimethyl pyrrolidone): 20%
Solubility in ethanol (Solubility): 1%
Solubility in water (Solubility): insoluble
Mortality at the end of 7 days (mice; 100 mg/kg per os, 5 mice per lot): 0
Mortality at the end of 7 days (mice; [4]): 5
LD50 at 168 h (in vivo): 140 mg/kg

Compound: Nc1nc(-c2ccc(Cl)cc2)cs1 [F 1654, 4-Parachloro-phenyl 2-amino thiazole]
Action on the volume of exudate ([1]; Treatment procedure 2): -41%
Delayed hypersensitivity pleural inflammation (in words) [1]: reduce the delayed hypersensitivity pleural inflammation
Action compared with levamisole (in words) [1]: superior to that of levamisole
Solubility in ethanol (Solubility): 15%
Solubility in water (Solubility): insoluble
Mortality at the end of 7 days (mice; [4]): 0
Mortality at the end of 7 days (mice; 300 mg/kg per os, 5 mice per lot): 3
Mortality at the end of 7 days (mice; 500 mg/kg per os, 5 mice per lot): 5
LD50 at 168 h (in vivo): 300 mg/kg

Compound: CCCCCCCCCCCC(=O)Nc1nc(-c2ccccc2)cs1 [F 1655]
Solubility in DMA (Solubility): 25%
Solubility in methyl pyrrolidone (Solubility): 25%
Solubility in water (Solubility): insoluble
Mortality at the end of 7 days (mice; [5]): 0
LD50 at 168 h (in vivo): > 1000 mg/kg

Compound: CCCCCCCCCCCCCCCCCC(=O)Nc1nc(-c2ccccc2)cs1 [F 1656, 4-phenyl 2-stearamido thiazole]
Solubility in DMA (Solubility): 20%
Solubility in methyl pyrrolidone (Solubility): 20%
Solubility in water (Solubility): insoluble
Mortality at the end of 7 days (mice; [5]): 0
LD50 at 168 h (in vivo): > 1000 mg/kg

Compound: O=C(O)CCC(=O)Nc1nc(-c2ccccc2)cs1 [F 1657, N(4-phenyl 2-thiazolyl) succinamic acid]
Solubility in DMA (Solubility): 20%
Solubility in methyl pyrrolidone (Solubility): 25%
Solubility in water (Solubility): insoluble
Mortality at the end of 7 days (mice; [5]): 0
LD50 at 168 h (in vivo): > 1000 mg/kg

Solubility in DMA (Solubility): 25%
Solubility in methyl pyrrolidone (Solubility): 25%
Solubility in water (Solubility): insoluble
Compound: CCOC(=O)Nc1nc(-c2ccccc2)cs1 [F 1658, 4-phenyl 2-(ethoxycarboxamido) thiazole]

Compound: O=C(Nc1nc(-c2ccccc2)cs1)Oc1ccccc1 [F 1659, 4-phenyl 2-phenoxy carbamoyl thiazole]
Solubility in DMA (Solubility): 4%
Solubility in methyl pyrrolidone (Solubility): 3%
Solubility in water (Solubility): insoluble
Mortality at the end of 7 days (mice; [5]): 0
LD50 at 168 h (in vivo): > 1000 mg/kg

Compound: O=C(Nc1nc(-c2ccc(Cl)cc2)cs1)OCC(Cl)(Cl)Cl [F 1660, 4-parachlorophenyl 2-(2'-2'-2'-trichloroethoxycarbamido) thiazole]
Solubility in DMA (Solubility): 20%
Solubility in methyl pyrrolidone (Solubility): 20%
Solubility in water (Solubility): insoluble
Mortality at the end of 7 days (mice; [5]): 0
LD50 at 168 h (in vivo): > 1000 mg/kg

Compound: O=C(O)CCC(=O)Nc1nc(-c2ccc(Cl)cc2)cs1 [F 1683, N(4-parachlorophenyl 2-thiazolyl) succinamic acid]
Solubility in DMA (Solubility): 20%
Solubility in methyl pyrrolidone (Solubility): 20%
Solubility in water (Solubility): insoluble
Mortality at the end of 7 days (mice; [5]): 0
LD50 at 168 h (in vivo): > 1000 mg/kg

Compound: O=C(Nc1nc(-c2ccccc2)cs1)c1cccnc1 [F 1684, N(4-phenyl 2-thiazolyl) nicotinamide]
Solubility in DMA (Solubility): 5%
Solubility in methyl pyrrolidone (Solubility): 5%
Solubility in water (Solubility): insoluble
Mortality at the end of 7 days (mice; [5]): 0
LD50 at 168 h (in vivo): > 1000 mg/kg

Compound: O=C(Nc1nc(-c2ccc(Cl)cc2)cs1)c1cccnc1 [F 1685, N(4-parachlorophenyl 2-thiazolyl) nicotinamide]
Solubility in DMA (Solubility): 20%
Solubility in methyl pyrrolidone (Solubility): 20%
Solubility in water (Solubility): insoluble
Mortality at the end of 7 days (mice; [5]): 0
LD50 at 168 h (in vivo): > 1000 mg/kg

Compound: O=C(Nc1nc(-c2ccccc2)cs1)OCC(Cl)(Cl)Cl [F 1686, 4-phenyl-2-(2'-2'-2'-trichloroethoxycarboxamido) thiazole]
Effect on the response to PPD (in words) ([2]; […], response of low intensity in controls (two to three weeks)): stimulate the response
Effect on the response to PPD (in words) ([2]; after 5 and 6 weeks): do not modify it significantly any longer
Stimulation of the reaction to the PPD (in words) ([2]; dependence on immune state): does not stimulate the reaction to the PPD except when the guinea pigs are in a state of hypoimmunization
Action on the number of mononuclears ([1]; Treatment procedure 1): -21%
Action on the number of polynuclears ([1]; Treatment procedure 1): -16%
Action on the total number of leukocytes ([1]; Treatment procedure 1): -19%
Action on the volume of exudate ([1]; Treatment procedure 1): -35%
Action on the number of mononuclears ([1]; Treatment procedure 2): -29%
Action on the number of polynuclears ([1]; Treatment procedure 2): -6%
Action on the total number of leukocytes ([1]; Treatment procedure 2): -22%
Action on the volume of exudate ([1]; Treatment procedure 2, 5 mg/kg): -50% and -42%
Delayed hypersensitivity pleural inflammation (in words) [1]: reduce the delayed hypersensitivity pleural inflammation
Action compared with levamisole (in words) [1]: superior to that of levamisole
NOAEL at 1460 h [3]: ≤ 30 mg/kg/day
Solubility in DMA (Solubility): 25%
Solubility in ethanol (Solubility): 3%
Solubility in methyl pyrrolidone (Solubility): 20%
Solubility in water (Solubility): insoluble
Mortality at the end of 7 days (mice; 1000 mg/kg per os, 10 mice per lot): 0
LD50 at 168 h (in vivo): > 1000 mg/kg

Compound: O=C(Nc1nc(-c2ccc(Cl)cc2)cs1)Oc1ccccc1 [F 1687]
Solubility in DMA (Solubility): 5%
Solubility in methyl pyrrolidone (Solubility): 5%
Solubility in water (Solubility): insoluble
Mortality at the end of 7 days (mice; [5]): 0
LD50 at 168 h (in vivo): > 1000 mg/kg

Compound: c1ccc([C@H]2CN3CCSC3=N2)cc1 [Levamisole, L-tetramisole, reference compound]
Effect on the response to PPD (in words) ([2]; guinea pig, in vivo): to a definitely lesser degree stimulate the response; also recorded: do not modify it significantly any longer
Action on the number of mononuclears ([1]; Treatment procedure 1): -11%
Action on the number of polynuclears ([1]; Treatment procedure 1): -9%
Action on the total number of leukocytes ([1]; Treatment procedure 1): -10%
Action on the volume of exudate ([1]; Treatment procedure 1): -22%
Action on the number of mononuclears ([1]; Treatment procedure 2): -17%
Action on the number of polynuclears ([1]; Treatment procedure 2): -7%
Action on the total number of leukocytes ([1]; Treatment procedure 2): -13%
Action on the volume of exudate ([1]; Treatment procedure 2): -23%

Reference: US4225610A, “Immunoactivators derived from amino thiazoles” (Pierre Fabre, S.A., priority 1977, dated 1980)
